Experimental findings from US7491534B2, “Methods for altering cell fate to generate T-cells specific for an antigen of interest” (priority 2000, dated 2009) are described below.

Experiment [1] relates to NFAT, c-Jun/AP 1, NFκB, and MAP kinase (Erk1 and Erk2). The experiment is described as follows: Nuclear uptake of transcription factors by resting T-cell nuclei in cell-free extract (immunoblot). In kind it is biochemical, human. To be noted: in stimulated extract; ATP or GTP substituted, or nuclear pores blocked. As for the experimental part: A stimulated T-cell extract was prepared by lysing these T-cells, centrifuging them at 15,000×g, isolating the supernatant, and adding an ATP-generating system to the supernatant. In particular, cells were disrupted with a tip sonicator until over 90% of the cells and nuclei were lysed. The lysate was cleared at 15,000×g for 15 minutes at 4° C. The supernatant was used fresh or aliquoted, frozen in liquid nitrogen, and stored at −80° C. […] Extract from unstimulated T-cells (USE) were prepared from mock (H2O)-stimulated T-cells. A reprogramming reaction consisted of 20 μl or multiples thereof of stimulated extract or unstimulated extract containing 10^5 nuclei and an ATP generating system (1 mM ATP, 10 mM creatine phosphate, 25 μg/ml creatine kinase, and 100 μM GTP).
To generate donor nuclei, resting peripheral blood T-cells were washed and resuspended in 20 volumes of ice-cold hypotonic nuclear buffer (10 mM Hepes, pH 7.5, 2 mM MgCl2, 25 mM KCl, 1 mM DTT, and protease inhibitors). Nuclei were isolated by careful Dounce-homogenization, sedimented at 400×g and washed in nuclear buffer (hypotonic nuclear buffer/250 mM sucrose). HUVEC, HeLa, and NT2 nuclei were isolated similarly. Nuclear integrity prior to, and after, incubation in the extract was monitored by phase contrast microscopy and by nuclear membrane labeling with 10 μg/ml of the lipophilic dye, DiOC6 (FIG. 8A). […]
The ability of other transcription factors from the extract to migrate into the nuclei of T-cells, B-cells, fibroblasts, and HeLa cells was also determined. […] As expected for a whole cell extract, NFAT, AP-1, or NFκB, Oct-1 and Erk (1 and 2) were detected on Western blots of input stimulated extract prior to incubation of the nuclei (FIG. 8B). […] The ubiquitous transcription factor Oct-1 was detected in similar amounts in input nuclei and nuclei exposed to stimulated extract or unstimulated extract (FIG. 8B, Oct-1).

Experiment [2] has as its system IL-2 gene. The experiment is described as follows: RT-PCR of IL-2 mRNA in HUVEC, NT2 and HeLa nuclei incubated in extract. It is filed as biochemical, human. To be noted: 50 nM actinomycin D; mAb414. Here is the method:
As a more stringent indicator of nuclear reprogramming, activation of the IL-2 gene was monitored in nuclei purified from primary human umbilical vein endothelial cells (HUVEC), NT2 neuronal precursors, and HeLa cells after a two hour incubation in the stimulated extract. […] IL-2 activation was dependent on RNA Pol II activity and nuclear import, based on its elimination by 50 nM actinomycin D and mAb414, respectively (FIG. 10C).

The test system of experiment [3] is IL-2 gene. The experiment is described as follows: RT-PCR of IL-2 transcription in 293T fibroblast nuclei. In kind it is biochemical, human. The note with it: 293T nuclei; mAb414 or 50 nM actinomycin D. As for the experimental part: Another and more stringent indicator of nuclear reprogramming was induction of IL-2 transcription in 293T fibroblast nuclei exposed to stimulated T-cell extract (FIG. 12D). Total RNA was isolated using the Qiagen RNeasy kit, and 15 ng RNA was used as the template for RT-PCR using the Promega Access RT-PCR System. A 467-bp product was amplified using the IL-2-specific primers 5′-[…]-3′ (SEQ ID NO: 5) and 5′-[…]-3′ (SEQ ID NO: 6) by 30 cycles of denaturation at 94° C. for 30 seconds, annealing at 60° C. for one minute, and extension at 72° C. for one minute. […] As expected from the above results, the IL-2 transcript was absent from input nuclei, input stimulated T-cell extract, and nuclei exposed to stimulated T-cell extract containing either 100 pg/ml RNAse A, mAb414, or 50 nM of the RNA polymerase II (Pol II) inhibitor, actinomycin D (FIG. 12D). Similar results were obtained with neuronal precursor NT2 nuclei and resting T-cell nuclei (FIG. 12D).

For experiment [4], the system named is 293T fibroblasts. The experiment is described as follows: Permeabilization of 293T fibroblasts judged by propidium iodide uptake. The note with it: 200 ng/ml, 50 minutes at 37° C. It is filed as cell-based, human. Here is the method: For these studies, 293T fibroblasts were grown on 16-mm poly-L-lysine-coated coverslips in RPMI1640 to 100,000 cells/coverslip in 12-well plates. Cells were permeabilized in 200 ng/ml streptolysin O in Ca^2+-free Hanks Balanced Salt Solution (Gibco-BRL) for 50 minutes at 37° C. in regular atmosphere. Over 80% of 293T cells were permeabilized under these conditions, as judged by propidium iodide uptake. Streptolysin O was aspirated; coverslips overlaid with 80 μl of either 293T, Jurkat-Tag, or NT2 extract; and incubated for one hour at 37° C. in CO2 atmosphere. Each extract contained the ATP generating system and 1 mM each of ATP, CTP, GTP and UTP. Extracts from Jurkat-TAg cells were prepared as described above after co-stimulation for 1-2 hours with 40 ng/ml anti-CD3 antibodies (clone SpvT3d obtained from A. M. Rasmussen, Norwegian Radium Hospital, Montebello, Norway) and 0.1 μM PMA. The neuronal precursor NT2 extract was prepared from confluent NT2 cells (Stratagene) by sonication and sedimentation as described above. To reseal plasma membranes, RPMI1640 containing 2 mM CaCl2 (added from a 1 M stock in H2O) was added to the wells, and the cells were incubated for two hours at 37° C. This procedure resealed ˜100% of the permeabilized cells. Ca^2+-containing RPMI was replaced by RPMI, and the cells were expanded for several weeks.

Experiment [5] concerns IL-2 gene. The experiment is described as follows: RT-PCR of IL-2 mRNA in resting T-cell nuclei incubated in extract. It is filed as biochemical, human. The note with it: mAb414 antibody or 0.5 mg/ml wheat germ agglutinin. As for the experimental part:
As controls, nuclei were incubated in stimulated extract containing either 100 μg/ml RNAse A, 100 μg/ml DNAse I, mAb414 antibodies, or the lectin WGA. After 30 minutes at 30° C., nuclei were lysed in the extracts by sonication and 3 μl extract aliquots were removed for RT-PCR analysis using IL-2-specific primers. In particular, total RNA was isolated using the Qiagen RNeasy kit, and 15 ng RNA was used as the template for RT-PCR using the Promega Access RT-PCR System. A 467-bp IL-2 cDNA was amplified using the IL-2-specific primers 5′-[…]-3′ (SEQ ID NO: 3) and 5′-[…]-3′ (SEQ ID NO:4). PCR conditions were 30 cycles of denaturation at 94° C. for one minute, annealing at 60° C. for two minutes, and extension at 72° C. for three minutes. Input stimulated extract and a control stimulated extract containing 1.2 μg total RNA isolated from IL-2-producing T-cells were also analyzed (FIGS. 5A and 10A). […] The PCR product of the expected size (467 base pairs) was absent from input nuclei and input stimulated extract (as expected from FIG. 7), nuclei exposed to unstimulated extract (Nuclei-USE), and nuclei exposed to stimulated extract followed by treatment with 100 μg/ml RNAse A, but not 100 μg/ml DNAse I, prior to RT-PCR. Thus, detection of IL-2 mRNA was the result of IL-2 transcription and not of RNA contamination in input nuclei or in the extract. […]

Numbered stars: 1 amine (or outer) side, 2 acyl side, 3 side chain; on linkers, the order of the positions; unused ones are H or OH. Bridge positions count the residues as written; N and C are the ends. Square brackets hold non-standard residues; d marks the D form. Peptide text beside a SMILES is read from it. I, II: the chains in the order shown. Actinocin(9to1) = Cc1c2oc3c(C)ccc(C(=O)[*:1])c3nc-2c(C(=O)[*:2])c(N)c1=O; NMeV = CN[C@H](C(=O)O)C(C)C; Sar = CNCC(=O)O

Turning to `Nc1ncnc2c1ncn2[C@@H]1O[C@H](COP(=O)(O)OP(=O)(O)NP(=O)(O)O)[C@@H](O)[C@H]1O` [AMP-PNP], the “nuclear uptake (import) of transcription factors in resting T-cell nuclei” value (shortened to “nuclear uptake (import)”) in experiment [1] is recorded as “inhibited”.
As to `Nc1ncnc2c1ncn2[C@@H]1O[C@H](COP(=O)(O)OP(=O)(O)OP(O)(O)=S)[C@@H](O)[C@H]1O` [ATPγS], the “nuclear uptake (import)” value in experiment [1] is “inhibited”.
With `Nc1nc2c(ncn2[C@@H]2O[C@H](COP(=O)(O)OP(=O)(O)OP(O)(O)=S)[C@@H](O)[C@H]2O)c(=O)[nH]1` [GTPγS], the “nuclear uptake (import)” value in experiment [1] is “inhibited”.
On to `Cc1c2oc3c(C)ccc(C(=O)N[C@@H]4C(=O)N[C@H](C(C)C)C(=O)N5CCC[C@H]5C(=O)N(C)CC(=O)N(C)[C@@H](C(C)C)C(=O)O[C@@H]4C)c3nc-2c(C(=O)N[C@@H]2C(=O)N[C@H](C(C)C)C(=O)N3CCC[C@H]3C(=O)N(C)CC(=O)N(C)[C@@H](C(C)C)C(=O)O[C@@H]2C)c(N)c1=O` [actinomycin D] (I: T[dV]P[Sar][NMeV] / II: T[dV]P[Sar][NMeV]; ester I:1-I:C, II:1-II:C; linker I:N-II:N via Actinocin(9to1)), for which the “IL-2 activation in stimulated extract with inhibitor” value in experiment [2] is reported as “elimination”. Also, the “IL-2 transcript in stimulated T-cell extract with inhibitor” value in experiment [3] was “absent”.
Consider “streptolysin O: bacterial toxin used to reversibly permeabilize cells”, for which the 293T cells permeabilized result in experiment [4] is recorded as “Over 80%”.
wheat germ agglutinin: the “IL-2 transcription in stimulated extract with nuclear pore function blocked” value in experiment [5] was “abolished”.
